# Earlier results, collected in US20210290563A1, “COMPOSITIONS AND METHODS FOR TREATING NEUROP[…]” (BIONICHE GLOBAL DEVELOPMENT, LLC, priority 2017, published 2021).
# Like-named read-outs stand apart in the source and are kept apart here.
# Columns and labels:
# [1] = not given; remark: listed apart in the source
SMILES,solubility in water,bioavailability estimates ([1]; buccal administration) [%],bioavailability estimates ([1]; intramuscular administration) [%],bioavailability estimates ([1]; intranasal administration),bioavailability estimates ([1]; intravenous administration) [%],bioavailability estimates ([1]; oral administration),bioavailability estimates ([1]; rectal administration) [%],bioavailability estimates ([1]; transdermal administration) [%]
CC(C)c1cccc(C(C)C)c1OCOP(=O)(O)O [Fospropofol disodium],water-soluble,–,–,–,–,–,–,–
"CC(C)c1cccc(C(C)C)c1O [Propofol, 2,6-diisopropylphenol]",only sparingly soluble in water,~50,~93,25-50%,~100,13-27%,~25,~10
